# PubChem BioAssay (NCI)
# “And” between values parts separate entries of the source, which are not always exact repeats. Equal values may be shown once.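 Results reflect a 48-hour exposure of cells in 96-well plates to compound at five concentrations. GI50 marks 50% less growth. TGI is the concentration that stops growth completely.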
# Legend:
# Experiment in all cases: inhibition of tumour cell growth, NCI panel, 48 h
# MDA-MB-435 = tested on: MDA-MB-435
# COLO 205 colon = tested on: COLO 205 colon
# OVCAR-4 ovarian = tested on: OVCAR-4 ovarian
# SK-OV-3 ovarian = tested on: SK-OV-3 ovarian
# KM12 colon = tested on: KM12 colon
# HL-60(TB) leukemia = tested on: HL-60(TB) leukemia
# SF-295 CNS = tested on: SF-295 CNS
# HCC-2998 colon = tested on: HCC-2998 colon
# EKVX NSCLC = tested on: EKVX NSCLC
# MOLT-4 leukemia = tested on: MOLT-4 leukemia
compound,measurement,setting,value
Clc1ccc(-c2nnc(-c3c(Cl)c(Cl)c(Cl)c(Cl)c3-c3nc4ccccc4[nH]3)o2)cc1,TGI,MDA-MB-435,> 100 µM
same,TGI,COLO 205 colon,> 100 µM
same,TGI,OVCAR-4 ovarian,> 100 µM
same,TGI,SK-OV-3 ovarian,> 100 µM
same,TGI,KM12 colon,> 100 µM
same,TGI,HL-60(TB) leukemia,> 100 µM
same,TGI,SF-295 CNS,> 100 µM
same,TGI,HCC-2998 colon,> 100 µM
same,TGI,EKVX NSCLC,> 100 µM
same,TGI,MOLT-4 leukemia,> 100 µM
O=c1/c(=C/c2ccc([N+](=O)[O-])o2)sc2n1[C@@H](c1ccc3c(c1)OCO3)C=C(c1cc(F)c(Cl)cc1Cl)N=2,TGI,MDA-MB-435,35.3 µM
same,TGI,COLO 205 colon,71.4 µM
same,TGI,OVCAR-4 ovarian,32.6 µM
same,TGI,SK-OV-3 ovarian,> 100 µM
same,TGI,KM12 colon,38.4 µM
same,TGI,HL-60(TB) leukemia,45.5 µM
same,TGI,SF-295 CNS,> 100 µM
same,TGI,HCC-2998 colon,28.7 µM
same,TGI,EKVX NSCLC,32.7 µM
same,TGI,MOLT-4 leukemia,> 100 µM
COc1cc2c(cc1OCCCN1CCN(c3ncnc4ccccc34)CC1)N=CC1CCCN1C2=O (stereo unspecified),GI50,MDA-MB-435,0.0214 µM
same,TGI,MDA-MB-435,0.0498 µM
same,GI50,COLO 205 colon,0.0203 µM
same,TGI,COLO 205 colon,0.0446 µM
same,GI50,OVCAR-4 ovarian,0.0633 µM
same,TGI,OVCAR-4 ovarian,8.63 µM
same,GI50,SK-OV-3 ovarian,0.0326 µM
same,TGI,SK-OV-3 ovarian,6.78 µM
same,GI50,KM12 colon,0.0325 µM
same,TGI,KM12 colon,0.183 µM
same,GI50,HL-60(TB) leukemia,0.0307 µM
same,GI50,SF-295 CNS,0.0258 µM
same,TGI,SF-295 CNS,0.0545 µM
same,GI50,HCC-2998 colon,0.019 µM
same,TGI,HCC-2998 colon,0.0381 µM
same,GI50,EKVX NSCLC,0.152 µM
same,TGI,EKVX NSCLC,0.677 µM
same,GI50,MOLT-4 leukemia,0.0175 µM
same,TGI,MOLT-4 leukemia,0.0596 µM
Nc1nc(=O)n(CC(O)CO)s1 (stereo unspecified),TGI,COLO 205 colon,> 100 µM
same,TGI,OVCAR-4 ovarian,> 100 µM
same,TGI,HL-60(TB) leukemia,> 100 µM
same,TGI,SF-295 CNS,> 100 µM
same,TGI,HCC-2998 colon,> 100 µM
same,TGI,EKVX NSCLC,> 100 µM
same,TGI,MOLT-4 leukemia,> 100 µM
N#C[S-].[Ce+3].c1cnc2c(c1)ccc1cccnc12.c1cnc2c(c1)ccc1cccnc12.c1cnc2c(c1)ccc1cccnc12,TGI,COLO 205 colon,13.4 µM
same,TGI,OVCAR-4 ovarian,20.5 µM
same,TGI,SK-OV-3 ovarian,13.5 µM
same,TGI,KM12 colon,18.3 µM
same,TGI,HL-60(TB) leukemia,48.3 µM
same,TGI,SF-295 CNS,1.45 µM
same,TGI,HCC-2998 colon,18.9 µM
same,TGI,EKVX NSCLC,17.4 µM
same,TGI,MOLT-4 leukemia,> 100 µM
Fc1c(F)c(C(F)(F)F)c(F)c(F)c1N/N=C/c1cn(Cc2ccccc2)c2ccccc12,TGI,MDA-MB-435,54.5 µM
same,TGI,COLO 205 colon,26.8 µM
same,TGI,OVCAR-4 ovarian,78.9 µM
same,TGI,SK-OV-3 ovarian,48.4 µM
same,TGI,KM12 colon,45 µM
same,TGI,HL-60(TB) leukemia,52.6 µM
same,TGI,SF-295 CNS,36.2 µM
same,TGI,EKVX NSCLC,43 µM
same,TGI,MOLT-4 leukemia,83.3 µM
O=C1C[C@H](CCC(=O)OCc2ccccc2)NC(=O)C[C@H](CCC(=O)OCc2ccccc2)NC(=O)C[C@H](CCC(=O)OCc2ccccc2)N1,TGI,MDA-MB-435,> 100 µM
same,TGI,COLO 205 colon,> 100 µM
same,TGI,OVCAR-4 ovarian,> 100 µM
same,TGI,SK-OV-3 ovarian,29 µM
same,TGI,KM12 colon,> 100 µM
same,TGI,SF-295 CNS,42.8 µM
same,TGI,HCC-2998 colon,> 100 µM
same,TGI,EKVX NSCLC,> 100 µM
same,TGI,MOLT-4 leukemia,> 100 µM
C[C@]12CCC(=O)C=C1CC[C@@H]1[C@@H]2[C@@H](O)C[C@@]2(C)[C@H]1CC[C@]2(O)C(=O)COC(=O)C1CCCC1,TGI,MDA-MB-435,> 100 µM
same,TGI,COLO 205 colon,> 100 µM
same,TGI,OVCAR-4 ovarian,> 100 µM
same,TGI,SK-OV-3 ovarian,> 100 µM
same,TGI,KM12 colon,> 100 µM
same,TGI,HL-60(TB) leukemia,> 100 µM
same,TGI,SF-295 CNS,> 100 µM
same,TGI,HCC-2998 colon,> 100 µM
same,TGI,EKVX NSCLC,> 100 µM
CNC(=O)Nc1ccccc1,TGI,MDA-MB-435,> 100 µM
same,TGI,COLO 205 colon,> 100 µM
same,TGI,OVCAR-4 ovarian,> 100 µM
same,TGI,KM12 colon,> 100 µM
same,TGI,HL-60(TB) leukemia,> 100 µM
same,TGI,SF-295 CNS,> 100 µM
same,TGI,HCC-2998 colon,> 100 µM
same,TGI,EKVX NSCLC,> 100 µM
same,TGI,MOLT-4 leukemia,> 100 µM
CC(=O)C1=C(O)CCC1=O,TGI,MDA-MB-435,> 100 µM
same,TGI,COLO 205 colon,> 100 µM
same,TGI,OVCAR-4 ovarian,> 100 µM
same,TGI,SK-OV-3 ovarian,> 100 µM
same,TGI,KM12 colon,> 100 µM
same,TGI,HL-60(TB) leukemia,> 100 µM
same,TGI,SF-295 CNS,> 100 µM
same,TGI,HCC-2998 colon,> 100 µM
same,TGI,EKVX NSCLC,> 100 µM
same,TGI,MOLT-4 leukemia,> 100 µM
C[N+](C)(CCO)CCN1c2ccccc2Sc2ccccc21,TGI,MDA-MB-435,> 10 µM
same,TGI,COLO 205 colon,> 10 µM
same,TGI,OVCAR-4 ovarian,> 10 µM
same,TGI,SK-OV-3 ovarian,> 10 µM
same,TGI,KM12 colon,> 10 µM
same,TGI,HL-60(TB) leukemia,> 10 µM
same,TGI,SF-295 CNS,> 10 µM
same,TGI,HCC-2998 colon,> 10 µM
same,TGI,EKVX NSCLC,> 10 µM
same,TGI,MOLT-4 leukemia,> 10 µM
Cc1nnc2n1N=C(c1cc(F)c(Cl)cc1Cl)/C(=C/c1ccc3c(c1)OCO3)S2,TGI,MDA-MB-435,> 100 µM
same,TGI,COLO 205 colon,> 100 µM
same,TGI,OVCAR-4 ovarian,> 100 µM
same,TGI,SK-OV-3 ovarian,> 100 µM
same,TGI,KM12 colon,> 100 µM
same,TGI,HL-60(TB) leukemia,> 100 µM
same,TGI,SF-295 CNS,> 100 µM
same,TGI,HCC-2998 colon,> 100 µM
same,TGI,EKVX NSCLC,84.3 µM
same,TGI,MOLT-4 leukemia,> 100 µM
COc1ccc(C2=NN(C(=O)c3cccnc3)C(O)(c3cc(F)c(Cl)cc3Cl)C2)cc1OC (stereo unspecified),TGI,MDA-MB-435,87.4 µM
same,TGI,COLO 205 colon,27.8 µM
same,TGI,OVCAR-4 ovarian,> 100 µM
same,TGI,SK-OV-3 ovarian,86.7 µM
same,TGI,KM12 colon,> 100 µM
same,TGI,HL-60(TB) leukemia,40.9 µM
same,TGI,SF-295 CNS,39 µM
same,TGI,EKVX NSCLC,73.6 µM
same,TGI,MOLT-4 leukemia,> 100 µM
COc1ccc(C2C(C=O)C(N3CCN(C)CC3)=Nc3nc4ccccc4n32)cc1 (stereo unspecified),TGI,MDA-MB-435,39.7 µM
same,TGI,COLO 205 colon,36 µM
same,TGI,OVCAR-4 ovarian,48.2 µM
same,TGI,KM12 colon,50.6 µM
same,TGI,HL-60(TB) leukemia,18.4 µM
same,TGI,SF-295 CNS,50.9 µM
same,TGI,HCC-2998 colon,33.9 µM
same,TGI,EKVX NSCLC,97.3 µM
same,TGI,MOLT-4 leukemia,12.3 µM
NC(CC(=O)O)(Cc1ccccc1)C(=O)O (stereo unspecified),TGI,MDA-MB-435,> 100 µM
same,TGI,COLO 205 colon,> 100 µM
same,TGI,OVCAR-4 ovarian,> 100 µM
same,TGI,SK-OV-3 ovarian,> 100 µM
same,TGI,KM12 colon,> 100 µM
same,TGI,HL-60(TB) leukemia,> 100 µM
same,TGI,SF-295 CNS,> 100 µM
same,TGI,EKVX NSCLC,> 100 µM
same,TGI,MOLT-4 leukemia,> 100 µM
O=C(NNC(=O)c1nsc2ccccc12)c1ccc(Cl)cc1,TGI,COLO 205 colon,66 µM
same,TGI,KM12 colon,65.7 µM
same,TGI,HL-60(TB) leukemia,49.8 µM
same,TGI,HCC-2998 colon,31 µM
same,TGI,EKVX NSCLC,42.3 µM
same,TGI,MOLT-4 leukemia,50.2 µM
Cc1ccc(SSCCCCCS(=O)O)cc1,TGI,OVCAR-4 ovarian,> 100 µM
same,TGI,SK-OV-3 ovarian,> 100 µM
same,TGI,KM12 colon,> 100 µM
same,TGI,HL-60(TB) leukemia,55.8 µM
same,TGI,HCC-2998 colon,> 100 µM
same,TGI,EKVX NSCLC,> 100 µM
same,TGI,MOLT-4 leukemia,40.3 µM
COc1ccc(C)cc1Nc1nnc(-c2ccc(N)cc2)s1,TGI,MDA-MB-435,> 100 µM
same,TGI,COLO 205 colon,> 100 µM
same,TGI,OVCAR-4 ovarian,> 100 µM
same,TGI,SK-OV-3 ovarian,> 100 µM
same,TGI,KM12 colon,> 100 µM
same,TGI,HL-60(TB) leukemia,> 100 µM
same,TGI,SF-295 CNS,> 100 µM
same,TGI,HCC-2998 colon,> 100 µM
same,TGI,EKVX NSCLC,> 100 µM
same,TGI,MOLT-4 leukemia,> 100 µM
CN(C)CCCN1c2ccccc2CCc2cc([N+](=O)[O-])ccc21,TGI,MDA-MB-435,48.4 µM and 31.1 µM
same,TGI,COLO 205 colon,60.1 µM and 32.4 µM
same,TGI,OVCAR-4 ovarian,69.5 µM and 40.5 µM
same,GI50,SK-OV-3 ovarian,38.7 µM and 17.3 µM
same,TGI,SK-OV-3 ovarian,> 100 µM and 32.6 µM
same,TGI,KM12 colon,71 µM and 35.1 µM
same,GI50,HL-60(TB) leukemia,19.2 µM and 2.83 µM
same,TGI,HL-60(TB) leukemia,54 µM and 9.46 µM
same,TGI,SF-295 CNS,45.1 µM and 28.4 µM
same,TGI,HCC-2998 colon,34.1 µM and 25.2 µM
same,TGI,EKVX NSCLC,> 100 µM and 37.4 µM
same,TGI,MOLT-4 leukemia,> 100 µM and 35.9 µM
CCOC(=O)c1c(CN2CCCC2)n(-c2ccccc2)c2cc(Br)c(OC)cc12,TGI,MDA-MB-435,> 100 µM
same,TGI,COLO 205 colon,25.3 µM
same,TGI,OVCAR-4 ovarian,> 100 µM
same,TGI,SK-OV-3 ovarian,78.3 µM
same,TGI,HL-60(TB) leukemia,36 µM
same,TGI,SF-295 CNS,30.4 µM
same,TGI,EKVX NSCLC,55.5 µM
same,TGI,MOLT-4 leukemia,24.3 µM
COc1cc2c(cc1OC)-c1cc3ccc(OC)c(OC)c3c[n+]1CC2,TGI,MDA-MB-435,> 100 µM
same,TGI,COLO 205 colon,> 100 µM
same,TGI,OVCAR-4 ovarian,> 100 µM
same,TGI,SK-OV-3 ovarian,> 100 µM
same,TGI,KM12 colon,> 100 µM
same,TGI,HL-60(TB) leukemia,> 100 µM
same,TGI,SF-295 CNS,> 100 µM
same,TGI,HCC-2998 colon,> 100 µM
same,TGI,EKVX NSCLC,> 100 µM
same,TGI,MOLT-4 leukemia,> 100 µM
